According to patent US9920032B2, “Heterocyclic compounds useful as pim kinase inhibitors” (Incyte Corporation, priority 2015, dated 2018):

Assays:
Type in all cases: biochemical
Pim-3 = Pim-3 (Homo sapiens (Human), UniProt Q86V86); experiment: Pim-3 kinase assay; conditions: 1 mM ATP; read-out: PIM3 IC50
In short: (§1)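 Enzyme at 2.5 pM (Pim-1) or 1.25 pM (Pim-3) reacted 1 h at 25° C with 1 mM ATP and 0.05 μM biotinylated BAD peptide, pH 7.5. Phospho-Ser112 BAD detected by antibody/Protein-A acceptor and streptavidin donor bead proximity signal after EDTA quench and 1 h dark incubation.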

Pim-1 = Pim-1 (Homo sapiens (Human), UniProt P11309); experiment: Pim-1 kinase assay; conditions: 1 mM ATP; read-out: PIM1 IC50
In short: as §1

Pim-2 = Pim-2 (Homo sapiens (Human), UniProt Q9P1W9); experiment: Pim-2 kinase assay; conditions: 1 mM ATP; read-out: PIM2 IC50
In short: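 TR-FRET assay with 1 nM enzyme, 0.05 μM fluorescein-CREBtide and 1 mM ATP in Tris pH 7.5 buffer with MgCl2, DTT, BSA and Tween-20, run 2 h at 25° C. Stopped with EDTA and Tb-labelled anti-CREB pSer133 antibody, then read after 30 min at room temperature.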

Chain of Pim-1 (P11309 whole entry): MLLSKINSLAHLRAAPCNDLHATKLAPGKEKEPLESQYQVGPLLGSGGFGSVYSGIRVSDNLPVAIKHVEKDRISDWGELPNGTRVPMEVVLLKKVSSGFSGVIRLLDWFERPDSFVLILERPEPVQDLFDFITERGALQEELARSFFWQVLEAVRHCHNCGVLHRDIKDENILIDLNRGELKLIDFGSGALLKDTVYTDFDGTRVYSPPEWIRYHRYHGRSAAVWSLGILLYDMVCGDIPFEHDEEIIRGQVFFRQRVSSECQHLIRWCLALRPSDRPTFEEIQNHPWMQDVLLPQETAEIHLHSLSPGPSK
Chain of Pim-2 (Q9P1W9 whole entry): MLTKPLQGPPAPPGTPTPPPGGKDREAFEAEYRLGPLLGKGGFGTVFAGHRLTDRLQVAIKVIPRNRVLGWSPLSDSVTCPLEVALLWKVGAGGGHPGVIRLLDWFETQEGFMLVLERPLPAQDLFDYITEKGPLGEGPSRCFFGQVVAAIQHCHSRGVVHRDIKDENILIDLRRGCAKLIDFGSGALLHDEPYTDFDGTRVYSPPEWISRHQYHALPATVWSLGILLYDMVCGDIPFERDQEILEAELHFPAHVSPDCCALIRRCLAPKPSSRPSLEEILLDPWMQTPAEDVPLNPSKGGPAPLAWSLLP

| Compound | IC50 (Pim-3) [nM] | IC50 (Pim-1) [nM] | IC50 (Pim-2) [nM] |
| --- | --- | --- | --- |
| C[C@@H]1C[C@H](N)C[C@H](c2ccncc2NC(=O)c2cccc3cc(N4CCC[C@@H]4C)cnc23)C1 [Example 69, N-(4-((1R,3S,5S)-3-Amino-5-methylcyclohexyl)pyridin-3-yl)-3-((S)-2-methylpyrrolidin-1-yl)quinoline-8-carboxamide] | ≤ 10 | ≤ 10 | ≤ 100 |
| CC1CCCCN1c1cnc2c(C(=O)Nc3cnccc3[C@@H]3C[C@H](C)C[C@H](N)C3)cccc2c1 (stereo partly drawn) [Example 70, N-(4-((1R,3S,5S)-3-Amino-5-methylcyclohexyl)pyridin-3-yl)-3-(2-methylpiperidin-1-yl)quinoline-8-carboxamide] | ≤ 10 | ≤ 10 | 100 to 1000 |
| C[C@@H]1C[C@H](N)C[C@H](c2ccncc2NC(=O)c2cccc3cc(N4CCCCC4C(F)F)cnc23)C1 (stereo partly drawn) [Example 71, N-(4-((1R,3S,5S)-3-Amino-5-methylcyclohexyl)pyridin-3-yl)-3-(2-(difluoromethyl)piperidin-1-yl)quinoline-8-carboxamide] | ≤ 10 | ≤ 10 | 100 to 1000 |
| C[C@@H]1C[C@H](N)C[C@H](c2ccncc2NC(=O)c2cccc3cc(N(C)CC(F)F)cnc23)C1 [Example 72, N-(4-((1R,3S,5S)-3-Amino-5-methylcyclohexyl)pyridin-3-yl)-3-((2,2-difluoroethyl)(methyl)amino)quinoline-8-carboxamide] | ≤ 10 | ≤ 10 | 100 to 1000 |
| C[C@@H]1C[C@H](N)C[C@H](c2ccncc2NC(=O)c2ccc(F)c3cc(N4CCSCC4)cnc23)C1 [Example 73, N-(4-((1R,3S,5S)-3-Amino-5-methylcyclohexyl)pyridin-3-yl)-5-fluoro-3-thiomorpholinoquinoline-8-carboxamide] | ≤ 10 | ≤ 10 | ≤ 100 |
| C[C@@H]1C[C@H](N)C[C@H](c2ccncc2NC(=O)c2ccc(F)c3cc(N4CCN(S(=O)(=O)N(C)C)CC4)cnc23)C1 [Example 74, N-(4-((1R,3S,5S)-3-Amino-5-methylcyclohexyl)pyridin-3-yl)-3-(4-(N,N-dimethylsulfamoyl)piperazin-1-yl)-5-fluoroquinoline-8-carboxamide] | ≤ 10 | ≤ 10 | 100 to 1000 |
| C[C@@H]1C[C@H](N)C[C@H](c2ccncc2NC(=O)c2ccc(F)c3cc(N4CCN(C)C(=O)C4)cnc23)C1 [Example 75, N-(4-((1R,3S,5S)-3-Amino-5-methylcyclohexyl)pyridin-3-yl)-5-fluoro-3-(4-methyl-3-oxopiperazin-1-yl)quinoline-8-carboxamide] | ≤ 10 | ≤ 10 | ≤ 100 |
| C[C@@H]1C[C@H](N)C[C@H](c2ccncc2NC(=O)c2ccc(F)c3cc(N4CCCCCC4)cnc23)C1 [Example 76, N-(4-((1R,3S,5S)-3-Amino-5-methylcyclohexyl)pyridin-3-yl)-3-(azepan-1-yl)-5-fluoroquinoline-8-carboxamide] | ≤ 10 | ≤ 10 | ≤ 100 |
| C[C@@H]1C[C@H](N)C[C@H](c2ccncc2NC(=O)c2ccc(F)c3cc(N4C5CCC4COC5)cnc23)C1 [Example 77, N-(4-((1R,3S,5S)-3-Amino-5-methylcyclohexyl)pyridin-3-yl)-3-(3-oxa-8-azabicyclo[3.2.1]octan-8-yl)-5-fluoroquinoline-8-carboxamide] | ≤ 10 | ≤ 10 | ≤ 100 |
| C[C@@H]1C[C@H](N)C[C@H](c2ccncc2NC(=O)c2ccc(F)c3cc(N4CCCC4=O)cnc23)C1 [Example 78, N-(4-((1R,3S,5S)-3-Amino-5-methylcyclohexyl)pyridin-3-yl)-5-fluoro-3-(2-oxopyrrolidin-1-yl)quinoline-8-carboxamide] | ≤ 10 | ≤ 10 | 100 to 1000 |
| C[C@@H]1C[C@H](N)C[C@H](c2ccncc2NC(=O)c2ccc(F)c3cc(N4CCc5ccccc54)cnc23)C1 [Example 79, N-(4-((1R,3S,5S)-3-Amino-5-methylcyclohexyl)pyridin-3-yl)-5-fluoro-3-(indolin-1-yl)quinoline-8-carboxamide] | ≤ 10 | ≤ 10 | 100 to 1000 |
| C[C@@H]1C[C@H](N)C[C@H](c2ccncc2NC(=O)c2ccc(F)c3cc(N4C[C@H]5C[C@@H]4CO5)cnc23)C1 [Example 80, N-(4-((1R,3S,5S)-3-Amino-5-methylcyclohexyl)pyridin-3-yl)-3-((1R,4R)-2-oxa-5-azabicyclo[2.2.1]heptan-5-yl)-5-fluoroquinoline-8-carboxamide] | ≤ 10 | ≤ 10 | ≤ 100 |
| C[C@@H]1C[C@H](N)C[C@H](c2ccncc2NC(=O)c2ccc(F)c3cc(N4CC5CC(C4)O5)cnc23)C1 [Example 81, N-(4-((1R,3S,5S)-3-Amino-5-methylcyclohexyl)pyridin-3-yl)-3-(6-oxa-3-azabicyclo[3.1.1]heptan-3-yl)-5-fluoroquinoline-8-carboxamide] | ≤ 10 | ≤ 10 | ≤ 100 |
| C[C@@H]1C[C@H](N)C[C@H](c2ccncc2NC(=O)c2ccc(F)c3cc(N4CCN(C(=O)N(C)C)CC4)cnc23)C1 [Example 82, N-(4-((1R,3S,5S)-3-Amino-5-methylcyclohexyl)pyridin-3-yl)-3-(4-(dimethylcarbamoyl)piperazin-1-yl)-5-fluoroquinoline-8-carboxamide] | ≤ 10 | ≤ 10 | 100 to 1000 |
| C[C@@H]1C[C@H](N)C[C@H](c2ccncc2NC(=O)c2ccc(F)c3cc(N(C)c4ccccc4)cnc23)C1 [Example 83, N-(4-((1R,3S,5S)-3-Amino-5-methylcyclohexyl)pyridin-3-yl)-5-fluoro-3-(methyl(phenyl)amino)quinoline-8-carboxamide] | ≤ 10 | ≤ 10 | ≤ 100 |
| C[C@@H]1C[C@H](N)C[C@H](c2ccncc2NC(=O)c2ccc(F)c3cc(N4CCN5C(=O)CCC5C4)cnc23)C1 (stereo partly drawn) [Example 84, N-(4-((1R,3S,5S)-3-Amino-5-methylcyclohexyl)pyridin-3-yl)-5-fluoro-3-(6-oxohexahydropyrrolo[1,2-a]pyrazin-2(1H)-yl)quinoline-8-carboxamide] | ≤ 10 | ≤ 10 | 100 to 1000 |
| C[C@@H]1C[C@H](N)C[C@H](c2ccncc2NC(=O)c2ccc(F)c3cc(N4CCN(S(C)(=O)=O)C[C@@H]4C)cnc23)C1 [Example 85, N-(4-((1R,3S,5S)-3-Amino-5-methylcyclohexyl)pyridin-3-yl)-5-fluoro-3-((S)-2-methyl-4-(methylsulfonyl)piperazin-1-yl)quinoline-8-carboxamide] | ≤ 10 | ≤ 10 | 100 to 1000 |
| C[C@@H]1C[C@H](N)C[C@H](c2ccncc2NC(=O)c2ccc(F)c3cc(N4CCN(S(C)(=O)=O)C[C@H]4C)cnc23)C1 [Example 86, N-(4-((1R,3S,5S)-3-Amino-5-methylcyclohexyl)pyridin-3-yl)-5-fluoro-3-((R)-2-methyl-4-(methylsulfonyl)piperazin-1-yl)quinoline-8-carboxamide] | ≤ 10 | ≤ 10 | ≤ 100 |
| C[C@@H]1C[C@H](N)C[C@H](c2ccncc2NC(=O)c2ccc(F)c3cc(N4C[C@H]5C[C@@H]4CN5S(C)(=O)=O)cnc23)C1 [Example 87, N-(4-((1R,3S,5S)-3-Amino-5-methylcyclohexyl)pyridin-3-yl)-5-fluoro-3-((1R,4R)-5-(methylsulfonyl)-2,5-diazabicyclo[2.2.1]heptan-2-yl)quinoline-8-carboxamide] | ≤ 10 | ≤ 10 | 100 to 1000 |
| COC(=O)N1CCN(c2cnc3c(C(=O)Nc4cnccc4[C@@H]4C[C@H](C)C[C@H](N)C4)ccc(F)c3c2)[C@@H](C)C1 [Example 88, (S)-Methyl 4-(8-(4-((1R,3S,5S)-3-amino-5-methylcyclohexyl)pyridin-3-ylcarbamoyl)-5-fluoroquinolin-3-yl)-3-methylpiperazine-1-carboxylate] | ≤ 10 | ≤ 10 | ≤ 100 |
| COC(=O)N1CCN(c2cnc3c(C(=O)Nc4cnccc4[C@@H]4C[C@H](C)C[C@H](N)C4)ccc(F)c3c2)[C@H](C)C1 [Example 89, (R)-Methyl 4-(8-(4-((1R,3S,5S)-3-amino-5-methylcyclohexyl)pyridin-3-ylcarbamoyl)-5-fluoroquinolin-3-yl)-3-methylpiperazine-1-carboxylate] | ≤ 10 | ≤ 10 | ≤ 100 |
| COC(=O)N1C[C@H]2C[C@@H]1CN2c1cnc2c(C(=O)Nc3cnccc3[C@@H]3C[C@H](C)C[C@H](N)C3)ccc(F)c2c1 [Example 90, (1R,4R)-Methyl 5-(8-(4-((1R,3S,5S)-3-amino-5-methylcyclohexyl)pyridin-3-ylcarbamoyl)-5-fluoroquinolin-3-yl)-2,5-diazabicyclo[2.2.1]heptane-2-carboxylate] | ≤ 10 | ≤ 10 | ≤ 100 |
| C[C@@H]1C[C@H](N)C[C@H](c2ccncc2NC(=O)c2ccc(F)c3cc(-c4c(F)cccc4F)nnc23)C1 [Example 91, N-{4-[(1R,3S,5S)-3-amino-5-methylcyclohexyl]pyridin-3-yl}-3-(2,6-difluorophenyl)-5-fluorocinnoline-8-carboxamide] | 10 to 50 | ≤ 10 | 1000 to 10000 |
| CCc1cc2c(F)ccc(C(=O)Nc3cnccc3[C@@H]3C[C@H](C)C[C@H](N)C3)c2nn1 [Example 92, N-{4-[(1R,3S,5S)-3-Amino-5-methylcyclohexyl]pyridin-3-yl}-3-ethyl-5-fluorocinnoline-8-carboxamide] | 10 to 50 | ≤ 10 | 1000 to 10000 |
